In general, IC50 refers to the point on the concentration scale where inhibition reaches its midpoint.

The text below walks through data of ChEMBL document CHEMBL5154853, “Synthesis and Pharmacological Evaluation of New N-Sulfonylureas as NLRP3 Inflammasome Inhibitors: Identification of a Hit Compound to Treat Gout” (J Med Chem, 2022).

The test system of data set [1] is J774.A1. Nature of the data set: Cytotoxicity against mouse J774.A1 cells assessed as reduction in cell viability at 0.01 to 3 uM measured after 24 hrs by MTT assay. The format is toxicity, cell-based. Particulars: j774.a1, 24 h, dose 0.01-3 µM. For orientation: Formazan colour is commonly taken as a measure of viable cells.
In the next data set the test system is AML12. Description: Cytotoxicity against mouse AML12 cells assessed as reduction in cell viability at 0.01 to 30 uM measured after 24 hrs by MTT assay. The class given is toxicity, cell-based. The note with it: aml12, 24 h, dose 0.01-30 µM.
The test system of data set [2] is Mus musculus. Description: Antiinflammatory activity in MSU-induced acute gout arthritis in NLRP3 knock out C57BL/6J mouse model assessed as reduction in paw swelling at 3 mg/kg, ip measured after 24 hrs relative to control. Also noted: scale not given: the % may be the effect or the level left. The class given is functional.
For data set [3], the system named is J774.A1. Nature of the data set: Cytotoxicity against mouse J774.A1 cells assessed as reduction in cell viability at 10 uM measured after 24 hrs by MTT assay relative to control. The class given is toxicity, cell-based. Particulars: j774.a1, 24 h.
Data set [4] deals with Mus musculus. Description: Antiinflammatory activity in MSU-induced acute gout arthritis in wild type male C57BL/6J mouse model assessed as decrease in paw inflammation at 3 mg/kg, ip measured after 24 hrs. The class given is functional, organism-based.
In data set [5] the test system is J774.A1. Description: Cytotoxicity against mouse J774.A1 cells assessed as reduction in cell viability at 30 uM measured after 24 hrs by MTT assay relative to control. The class given is toxicity, cell-based. Particulars: j774.a1, 24 h.
Data set [6] deals with NACHT, LRR and PYD domains-containing protein 3 (Mus musculus, UniProt Q8R4B8). Nature of the data set: Inhibition of NLRP3 inflammasome activation in LPS-primed mouse BMDM cells assessed as reduction in ATP induced IL-1beta release pretreated for 15 mins followed by ATP stimulation for 30 mins by ELISA. The format is cell-based. In general terms: In an ELISA, binding on a coated surface is turned into a signal by an enzyme label.

The test system of data set [7] is Mus musculus. Nature of the data set: Antiinflammatory activity in MSU-induced acute gout arthritis in NLRP3 knockout female C57BL/6J mouse model assessed as reduction in paw inflammation at 3 to 10 mg/kg, ip measured after 24 hrs relative to control. The format is functional. Also noted: scale not given: the % may be the effect or the level left. Particulars: dose 3-10 mg/kg.

Data set [8] has as its system Mus musculus. Description: Antiinflammatory activity in MSU-induced acute gout arthritis in wild type female C57BL/6J mouse model assessed as decrease in paw inflammation at 10 mg/kg, ip measured after 24 hrs relative to control. The class given is functional. The arrangement: scale not given: the % may be the effect or the level left.
Data set [9] concerns Mus musculus. Description: Antiinflammatory activity in MSU-induced acute gout arthritis in wild type male C57BL/6J mouse model assessed as decrease in paw inflammation at 3 to 10 mg/kg, ip measured after 24 hrs. The format is functional, organism-based. Particulars: dose 3-10 mg/kg.
Data set [10] concerns the target NACHT, LRR and PYD domains-containing protein 3 (Mus musculus) (UniProt Q8R4B8). Description: Inhibition of NLRP3 inflammasome oligomerization in LPS-primed mouse BMDM cells assessed as prevention of ASC specks formation at 1 uM pretreated for 15 mins followed by ATP stimulation for 30 mins by DAPI staining based confocal microscopic analysis. Particulars: time 45.0 min. The class given is cell-based.

Data set [11] has as its system Mus musculus. Description: Analgesic activity in MSU-induced mechanical hyperalgesia in wild type C57BL/6J mouse model assessed as decrease in paw withdrawal threshold at 10 mg/kg, ip measured after 24 hrs by von Frey test (Rvb= 72%). The class given is functional. Also noted: scale not given: the % may be the effect or the level left.
Data set [12] addresses NACHT, LRR and PYD domains-containing protein 3 (Mus musculus) (UniProt Q8R4B8). Description: Inhibition of NLRP3 inflammasome activation in LPS-primed mouse BMDM cells assessed as inhibition of IL-1beta cleavage in supernatant at 1 uM pretreated for 15 mins followed by ATP addition for 30 mins by Western blot analysis. Particulars: time 45.0 min. The format is cell-based. (A western blot detects proteins with antibodies after separation by electrophoresis.)

The test system of data set [13] is Mus musculus. Description: Antiinflammatory activity in MSU-induced acute gout arthritis in wild type female C57BL/6J mouse model assessed as decrease in paw inflammation at 3 mg/kg, ip measured after 24 hrs relative to control. The format is functional. Also noted: scale not given: the % may be the effect or the level left.
The target in data set [14] is NACHT, LRR and PYD domains-containing protein 3 (Mus musculus) (UniProt Q8R4B8). Nature of the data set: Inhibition of NLRP3 inflammasome activation in LPS-primed mouse BMDM cells assessed as inhibition of caspase-1 cleavage in supernatant at 1 uM pretreated for 15 mins followed by ATP addition for 30 mins by Western blot analysis. Particulars: time 45.0 min. The class given is cell-based.

For data set [15] the target is unchanged. Nature of the data set: Inhibition of NLRP3 inflammasome oligomerization in LPS-primed mouse BMDM cells assessed as prevention of ASC specks formation at 1 uM pretreated for 15 mins followed by MSU stimulation for 30 mins by DAPI staining based confocal microscopic analysis. The class given is cell-based. Particulars: time 45.0 min.
The test system of data set [16] is Mus musculus. Nature of the data set: Antiinflammatory activity in MSU-induced acute gout arthritis in wild type male C57BL/6J mouse model assessed as decrease in paw inflammation at 10 mg/kg, ip measured after 24 hrs relative to control. The format is functional. Also noted: scale not given: the % may be the effect or the level left.
Data set [17] has as its system Mus musculus. Nature of the data set: Antiinflammatory activity in MSU-induced acute gout arthritis in NLRP3 knockout male C57BL/6J mouse model assessed as reduction in paw inflammation at 3 to 10 mg/kg, ip measured after 24 hrs relative to control. The class given is functional. Also noted: scale not given: the % may be the effect or the level left. The note with it: dose 3-10 mg/kg.

Data set [18] has as its system Mus musculus. Description: Antiinflammatory activity in MSU-induced acute gout arthritis in wild type male C57BL/6J mouse model assessed as decrease in paw inflammation at 3 mg/kg, ip measured after 24 hrs relative to control. The class given is functional. Also noted: scale not given: the % may be the effect or the level left.
Data set [19] concerns Mus musculus. Description: Analgesic activity in MSU-induced mechanical hyperalgesia in wild type C57BL/6J mouse model assessed as decrease in paw withdrawal threshold at 3 mg/kg, ip measured after 24 hrs by von Frey test (Rvb= 72%). The arrangement: scale not given: the % may be the effect or the level left. The class given is functional.

Activity calls are given as the source filed them.

Chain of NACHT, LRR and PYD domains-containing protein 3 (Mus musculus) (Q8R4B8 whole entry, the tested form may be a part): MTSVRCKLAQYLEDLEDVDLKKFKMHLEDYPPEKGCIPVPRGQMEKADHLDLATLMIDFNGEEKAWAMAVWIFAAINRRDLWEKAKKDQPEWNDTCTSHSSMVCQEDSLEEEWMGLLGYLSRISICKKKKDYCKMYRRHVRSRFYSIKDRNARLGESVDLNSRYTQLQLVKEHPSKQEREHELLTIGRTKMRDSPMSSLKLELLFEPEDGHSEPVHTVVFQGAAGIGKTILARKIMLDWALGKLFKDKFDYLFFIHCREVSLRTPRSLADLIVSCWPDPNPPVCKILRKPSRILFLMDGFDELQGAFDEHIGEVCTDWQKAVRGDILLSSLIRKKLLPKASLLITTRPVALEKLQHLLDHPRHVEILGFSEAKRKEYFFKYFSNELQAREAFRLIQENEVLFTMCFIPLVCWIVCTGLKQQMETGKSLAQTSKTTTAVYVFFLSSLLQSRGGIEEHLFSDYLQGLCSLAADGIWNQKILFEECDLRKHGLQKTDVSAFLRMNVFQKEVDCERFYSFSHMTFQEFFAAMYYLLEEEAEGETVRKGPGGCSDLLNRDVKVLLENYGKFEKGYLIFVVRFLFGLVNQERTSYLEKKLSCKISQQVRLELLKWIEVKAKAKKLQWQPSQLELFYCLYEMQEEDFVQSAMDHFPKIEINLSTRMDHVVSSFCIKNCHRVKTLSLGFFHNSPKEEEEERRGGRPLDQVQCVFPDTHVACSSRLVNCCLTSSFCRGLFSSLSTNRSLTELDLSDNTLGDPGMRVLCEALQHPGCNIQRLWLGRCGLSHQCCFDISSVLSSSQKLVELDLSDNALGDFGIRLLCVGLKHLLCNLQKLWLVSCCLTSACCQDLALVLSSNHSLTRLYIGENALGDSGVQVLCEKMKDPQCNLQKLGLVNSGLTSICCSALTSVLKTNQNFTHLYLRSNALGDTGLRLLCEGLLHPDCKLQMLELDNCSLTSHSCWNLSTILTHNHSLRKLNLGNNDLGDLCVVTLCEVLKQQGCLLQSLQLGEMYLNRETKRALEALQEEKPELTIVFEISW
Chain of NACHT, LRR and PYD domains-containing protein 3 (Q8R4B8 whole entry, the tested form may be a part): as above

Turning to `CC(C)(O)c1coc(S(=O)(=O)NC(=O)Nc2c3c(cc4c2CCC4)CCC3)c1`, the Activity result was “Non-Toxic” in the data set with J774.A1 [1]; “Non-Toxic” with AML12; 33% in the data set with Mus musculus [2]; 30% with J774.A1 [3]; 30% in the data set on J774.A1 [5]. Also, the outcome with Mus musculus [4] was Active. The IC50 in data set [6] was 0.39 nM.
As to `Cc1cc(C)cc(NC(=O)[N-]S(=O)(=O)c2cc(C(C)(C)O)co2)c1.[Na+]`, the Activity entry was “Non-Toxic” in the data set on J774.A1 [1]; 60% with Mus musculus [7]; 52% with Mus musculus [8]; “Non-Toxic” in the data set with AML12; 19% with Mus musculus [11]; 20% with J774.A1 [3]. In addition, the Activity with Mus musculus [13] stood at 33%; in the data set on J774.A1 [5], 20%; in the data set with Mus musculus [16] it was 66%; with Mus musculus [17] it was 65%; with Mus musculus [18], 40%; in the data set with Mus musculus [19], 47%. Also, in the data set with Mus musculus [9], the result was Active. The inhibition entry in data set [10], in data set [12], in data set [14] and in [15] was “Active” each time. Further, the concentration for half-maximal inhibition (IC50) in [6] is 0.23 nM.
